Reference: patent US9850283B2, “Macrocyclic inhibitors of the PD-1/PD-L1 and CD80(B7-1)/PD-L1 protein/protein interactions” (BRISTOL-MYERS SQUIBB COMPANY, priority 2013, dated 2017)
Like-named read-outs stand apart in the source and are kept apart here. Positions of bridges follow the written chain, without caps; N, C: chain ends. Non-standard residues stand in square brackets, D forms with d. Residues, ends and D or L forms follow the SMILES beside them. Ala(indol-4-yl) = N[C@@H](Cc1cccc2[nH]ccc12)C(=O)O; Trp(5-Cl) = N[C@@H](Cc1c[nH]c2ccc(Cl)cc12)C(=O)O; Bta = N[C@@H](Cc1csc2ccccc12)C(=O)O; Hyp = O=C(O)[C@@H]1C[C@@H](O)CN1; NMeF = CN[C@@H](Cc1ccccc1)C(=O)O; NMeNle = CCCC[C@H](NC)C(=O)O; Pip = O=C(O)[C@@H]1CCCCN1; NMeA = CN[C@@H](C)C(=O)O; Dap = NC[C@H](N)C(=O)O; Sar = CNCC(=O)O

Tests used:
[1] = molecular target: T1, Human PD-L1/PD-1 (Homo sapiens, UniProt Q9NZQ7); test: HTRF PD-1-Ig/PD-L1-His binding assay (human PD-L1); settings: cluster symbol; read-out: HTRF IC50 cluster
T1 construct: made in house; host or cells: HEK293T
T1 sequence (Q9NZQ7 with tags, fused parts or gaps): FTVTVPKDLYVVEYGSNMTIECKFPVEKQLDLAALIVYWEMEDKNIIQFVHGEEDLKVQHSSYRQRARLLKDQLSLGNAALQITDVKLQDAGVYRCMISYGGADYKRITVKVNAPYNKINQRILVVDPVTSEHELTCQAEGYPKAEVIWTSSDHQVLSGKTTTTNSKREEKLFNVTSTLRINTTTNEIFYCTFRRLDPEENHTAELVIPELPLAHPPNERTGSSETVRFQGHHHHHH
Outline: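 Ig- and His-fused extracellular PD-1/PD-L1 binding in BSA/Tween-20 dPBS. HTRF with Eu anti-Ig (1 nM final) and APC anti-His (20 nM final).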

[2] = molecular target: T2, LK35.2-hPD-L1 cells / PE-labeled PD-1-Ig (Homo sapiens, UniProt Q9NZQ7); test: LK35.2-hPD-L1 cell binding high-content screening assay; type: cell-based; settings: cluster symbol, read-out: CBA IC50 cluster
T2 construct: expressed in transfected cells; host or cells: LK35.2 mouse B cell line
T2 sequence (Q9NZQ7 19-290): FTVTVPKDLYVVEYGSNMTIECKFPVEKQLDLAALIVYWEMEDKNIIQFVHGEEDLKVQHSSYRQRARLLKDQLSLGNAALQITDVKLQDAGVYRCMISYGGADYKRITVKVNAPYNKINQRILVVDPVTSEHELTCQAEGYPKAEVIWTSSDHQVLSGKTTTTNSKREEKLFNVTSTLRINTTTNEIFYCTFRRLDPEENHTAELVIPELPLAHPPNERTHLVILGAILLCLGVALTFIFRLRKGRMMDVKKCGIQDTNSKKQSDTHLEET
Outline: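 Mouse LK35.2 B cells stably over-expressing human PD-L1, cultured overnight, treated with compound plus PE-labeled human PD-1-Ig (1 nM final) in RPMI/10% FCS for 1 h at 37 °C. After washing, bound fluorescence quantified by high-content imaging.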

[3] = cell line of CBA not given (LK35.2-hPD-L1 or 293T-hPD-L1)

Row | SMILES | IC50 [1] [nM] | IC50 [2, 3] [nM] | IC50 ([2]; cell binding assay, cell line not given) [nM]
1 | CCCC[C@H]1C(=O)N(C)[C@@H](CCCC)C(=O)N[C@@H](CCCNC(=N)N)C(=O)N[C@H](C(=O)NCC(N)=O)CSCC(=O)N[C@@H](Cc2ccccc2)C(=O)N(C)[C@@H](C)C(=O)N[C@@H](CC(N)=O)C(=O)N2CCC[C@H]2C(=O)N[C@@H](Cc2c[nH]cn2)C(=O)N[C@@H](CC(C)C)C(=O)N(C)CC(=O)N[C@@H](Cc2c[nH]c3ccccc23)C(=O)N[C@@H](CO)C(=O)N[C@@H](Cc2c[nH]cn2)C(=O)N1C [Example 1004] ({CH2CO}-F[NMeA]NPHL[Sar]WSH[NMeNle][NMeNle]RCG-NH2; thioether N-14) | > 30.5 | > 74.3 | 
2 | CCCC[C@H]1C(=O)N(C)[C@@H](CCCC)C(=O)N[C@@H](C)C(=O)N[C@H](C(=O)NCC(N)=O)CSCC(=O)N[C@@H](Cc2ccc(O)cc2)C(=O)N(C)[C@@H](C)C(=O)N[C@@H](CC(N)=O)C(=O)N2CCC[C@H]2C(=O)N[C@@H](Cc2cnc[nH]2)C(=O)N[C@@H](CC(C)C)C(=O)N2CCC[C@H]2C(=O)N[C@@H](Cc2c[nH]c3ccccc23)C(=O)N[C@@H](CO)C(=O)N[C@@H](Cc2csc3ccccc23)C(=O)N1C [Example 1049] ({CH2CO}-Y[NMeA]NPHLPWS[Bta][NMeNle][NMeNle]ACG-NH2; thioether N-14) | 6.76 to 30.3 | 0.158 to 4.71 | 
3 | CCCC[C@H]1C(=O)N(C)CC(=O)N[C@@H](CC(=O)O)C(=O)N[C@@H](C(C)C)C(=O)N(C)[C@@H](Cc2ccccc2)C(=O)N[C@@H](Cc2c[nH]c3ccc(Cl)cc23)C(=O)N(C)CC(=O)N[C@@H](Cc2c[nH]c3ccccc23)C(=O)N[C@@H](Cc2ccc(O)cc2)C(=O)N[C@@H](CC(C)C)C(=O)N[C@H](C(=O)NCC(N)=O)CSCC(=O)N[C@@H](Cc2ccccc2)C(=O)N(C)[C@@H](Cc2ccccc2)C(=O)N1C [Example 3109] ({CH2CO}-F[NMeF][NMeNle][Sar]DV[NMeF][Trp(5-Cl)][Sar]WYLCG-NH2; thioether N-13) | > 30.5 | 4.78 to 72.9 | 
4 | CCCC[C@H]1C(=O)N(C)[C@@H](CCCC)C(=O)N[C@@H](CCCNC(=N)N)C(=O)N[C@H](C(=O)NCC(N)=O)CSCC(=O)N[C@@H](Cc2ccc(O)cc2)C(=O)N2CCCC[C@H]2C(=O)N[C@@H](CC(N)=O)C(=O)N2CCC[C@H]2C(=O)N[C@@H](CN)C(=O)N[C@@H](CC(C)C)C(=O)N2C[C@H](O)C[C@H]2C(=O)N[C@@H](Cc2c[nH]c3ccccc23)C(=O)N[C@@H](CO)C(=O)N[C@@H](Cc2c[nH]c3ccccc23)C(=O)N1C [Example 1236] ({CH2CO}-Y[Pip]NP[Dap]L[Hyp]WSW[NMeNle][NMeNle]RCG-NH2; thioether N-14) | 6.76 to 30.3 | 0.158 to 4.71 | 
5 | CCCC[C@H]1C(=O)N(C)CC(=O)N[C@@H](CC(=O)O)C(=O)N[C@@H](C(C)C)C(=O)N(C)[C@@H](Cc2ccccc2)C(=O)N[C@@H](Cc2cccc3[nH]ccc23)C(=O)N(C)CC(=O)N[C@@H](Cc2c[nH]c3ccccc23)C(=O)N[C@@H](Cc2ccc(O)cc2)C(=O)N[C@@H](CC(C)C)C(=O)N[C@H](C(=O)NCC(N)=O)CSCC(=O)N[C@@H](Cc2ccccc2)C(=O)N(C)[C@@H](Cc2ccccc2)C(=O)N1C [Example 3110] ({CH2CO}-F[NMeF][NMeNle][Sar]DV[NMeF][Ala(indol-4-yl)][Sar]WYLCG-NH2; thioether N-13) | 6.76 to 30.3 | 0.158 to 4.71 | 
6 | CCCC[C@H]1C(=O)N(C)CC(=O)N[C@@H](CC(=O)O)C(=O)N[C@@H](C(C)C)C(=O)N(C)[C@@H](Cc2ccccc2)C(=O)N[C@@H](Cc2ccc(O)cc2)C(=O)N(C)CC(=O)N[C@@H](Cc2c[nH]c3ccccc23)C(=O)N[C@@H](Cc2ccc(O)cc2)C(=O)N[C@@H](CC(C)C)C(=O)N[C@H](C(=O)NCC(N)=O)CSCC(=O)N[C@@H](Cc2ccccc2)C(=O)N(C)[C@@H](Cc2cccc3ccccc23)C(=O)N1C (single isomer, unassigned) [Example 3585-A] | > 30.5 |  | > 74.3
